Legend:
HIV-IIIb = experiment: Antiviral assay in MT-2 cells; format: cell-based; conditions: Human immunodeficiency virus 1, 120 h; HIV-IIIb infected cells, 5 days, CellTiter-Glo; MT-2 or MT-4 cells not stated
Method: For the antiviral assay utilizing MT-2 cells, 50 μL of 2× test concentration of 5-fold serially diluted compound in culture medium with 10% FBS was added to each well of a 96-well plate (9 concentrations) in triplicate. MT-2 cells were infected with HIV-IIIb at a multiplicity of infection (m.o.i) of 0.01 for 3 hours. Fifty microliters of infected cell suspension in culture medium with 10% FBS (˜1.5×10^4 cells) was then added to each well containing […] of diluted compound. The plates were then incubated at 37° C. for 5 days. For the antiviral assay utilizing MT-4 cells, 20 μL of 2× test concentration of 5-fold serially diluted compound in culture medium with 10% FBS was added to each well of a 384-well plate (7 concentrations) in triplicate. MT-4 cells were next mixed with HIV-IIIb at an m.o.i. of 0.1 and 20 μl of virus/cell mixture (2000 cells) was immediately added to each well containing […] of diluted compound. The plates were then incubated at 37° C. for 5 days. After 5 days of incubation, 100 μL of CellTiter-Glo™ Reagent (catalog #G7571, Promega Biosciences, Inc., Madison, Wis.) was added to each well containing MT-2 cells and 40 μL to each well containing MT-4 cells. Cell lysis was carried out by incubation at room temperature for 10 min and chemiluminescence was read.

Compound | EC50 (HIV-IIIb) [nM] | melting point [°C]
CCCCn1c(C(=O)c2cc(C)cc(CCC#N)c2)c(C(C)C)c(=O)[nH]c1=O [Compound 76, 3-[3-(3-Butyl-5-isopropyl-2,6-dioxo-1,2,3,6-tetrahydro-pyrimidine-4-carbonyl)-5-methyl-phenyl]-propionitrile] | < 10 | 172 to 173
Cc1cc(C#N)cc(C(=O)c2c(C(C)C)c(=O)[nH]c(=O)n2CC2(CC(N)=O)CC2)c1 [Compound 85, 2-{1-[6-(3-Cyano-5-methyl-benzoyl)-5-isopropyl-2,4-dioxo-3,4-dihydro-2H-pyrimidin-1-ylmethyl]-cyclopropyl}-acetamide] | – | 283 to 285
Cc1cc(C#N)cc(C(=O)c2c(C(C)C)c(=O)[nH]c(=O)n2C(C)C)c1 [Compound 77, 3-(3,5-Diisopropyl-2,6-dioxo-1,2,3,6-tetrahydro-pyrimidine-4-carbonyl)-5-methyl-benzonitrile] | – | 278 to 280
CCn1c(C(=O)c2cc(C)cc(C=CC#N)c2)c(C(C)C)c(=O)[nH]c1=O [Compound 73, 3-[3-(3-Ethyl-5-isopropyl-2,6-dioxo-1,2,3,6-tetrahydro-pyrimidine-4-carbonyl)-5-methyl-phenyl]-acrylonitrile] | < 10 | 174 to 176
CCn1c(C(=O)c2cc(C)cc(CCC#N)c2)c(C(C)C)c(=O)[nH]c1=O [Compound 75, 3-[3-(3-Ethyl-5-isopropyl-2,6-dioxo-1,2,3,6-tetrahydro-pyrimidine-4-carbonyl)-5-methyl-phenyl]-propionitrile] | – | 173 to 174
CCOCn1c(C(=O)c2cc(C)cc(C)c2)c(C(C)C)c(=O)[nH]c1=O [Compound 54] | < 10 | –
C/C=C/Cn1c(C(=O)c2cc(C)cc(C)c2)c(C(C)C)c(=O)[nH]c1=O [Compound 60] | < 10 | –
CCn1c(C(C#N)c2cc(C)cc(C#N)c2)c(C(C)C)c(=O)[nH]c1=O (centres unmarked) [Compound 85, 3-[Cyano-(3-ethyl-5-isopropyl-2,6-dioxo-1,2,3,6-tetrahydro-pyrimidin-4-yl)-methyl]-5-methyl-benzonitrile] | – | 260 to 261
CCOCn1c(C(=O)c2cc(C)cc(/C=C/C#N)c2)c(C(C)C)c(=O)[nH]c1=O [Compound 56] | < 10 | –
Cc1cc(C=CC#N)cc(C(=O)c2c(C(C)C)c(=O)[nH]c(=O)n2CC2CC2)c1 [Compound 72, 3-[3-(3-Cyclopropylmethyl-5-isopropyl-2,6-dioxo-1,2,3,6-tetrahydro-pyrimidine-4-carbonyl)-5-methyl-phenyl]-acrylonitrile] | < 10 | 225 to 226
CCCCn1c(C(=O)c2cc(C)cc(C#N)c2)c(CC)c(=O)[nH]c1=O [Compound 70] | < 10 | 190 to 191
CCOCn1c(C(F)c2cc(C)cc(C)c2)c(C(C)C)c(=O)[nH]c1=O (centres unmarked) [Compound 57] | < 10 | –
CCOCn1c(C(=O)c2cc(Cl)cc(C#N)c2)c(C(C)C)c(=O)[nH]c1=O [Compound 38] | < 10 | 162 to 164
CC=CCn1c(Oc2cc(C)cc(C)c2)c(C(C)C)c(=O)[nH]c1=O [Compound 115, 1-But-2-enyl-6-(3,5-dimethyl-phenoxy)-5-isopropyl-1H-pyrimidine-2,4-dione] | < 10 | –
CCCCn1c(C(=O)c2cc(C)cc(C=CC#N)c2)c(C(C)C)c(=O)[nH]c1=O [Compound 74, 3-[3-(3-Butyl-5-isopropyl-2,6-dioxo-1,2,3,6-tetrahydro-pyrimidine-4-carbonyl)-5-methyl-phenyl]-acrylonitrile] | < 10 | 164 to 165

More lines, now with the values ahead:

EC50 (HIV-IIIb) [nM] | melting point [°C] | Compound
< 10 | – | CCCCn1c(C(=O)c2cc(C)cc(C#N)c2)c(C(C)C)c(=O)[nH]c1=O [Compound 47, 3-(3-Butyl-5-isopropyl-2,6-dioxo-1,2,3,6-tetrahydro-pyrimidine-4-carbonyl)-5-methyl-benzonitrile]
< 10 | – | CCOCn1c(C(=O)c2cc(C)cc(C#N)c2)c(C(C)C)c(=O)[nH]c1=O [Compound 9]
< 10 | 202 to 203 | CCCn1c(C(=O)c2cc(C)cc(C#N)c2)c(C(C)C)c(=O)[nH]c1=O [Compound 46]
< 10 | 166 to 167 | Cc1cc(C#N)cc(C(=O)c2c(C(C)C)c(=O)[nH]c(=O)n2CCCO)c1 [Compound 25]
< 10 | – | Cc1cc(C#N)cc(C(=O)c2c(C(C)C)c(=O)[nH]c(=O)n2CC2CC2)c1 [Compound 5]
< 10 | – | CCn1c(C(=O)c2cc(C)cc(C#N)c2)c(C(C)C)c(=O)[nH]c1=O [Compound 3, 3-(3-ethyl-5-isopropyl-2,6-dioxo-1,2,3,6-tetrahydro-pyrimidine-4-carbonyl)-5-methyl-benzonitrile]
< 10 | – | Cc1cc(C#N)cc(C(=O)c2c(C(C)C)c(=O)[nH]c(=O)n2CCOC(N)=O)c1 [Compound 86, Carbamic acid 2-[6-(3-cyano-5-methyl-benzoyl)-5-isopropyl-2,4-dioxo-3,4-dihydro-2H-pyrimidin-1-yl]-ethyl ester]
– | 200 to 201 | Cc1cc(C#N)cc(C(=O)c2c(C(C)C)c(=O)[nH]c(=O)n2CC(C)C)c1 [Compound 78, 3-(3-Isobutyl-5-isopropyl-2,6-dioxo-1,2,3,6-tetrahydro-pyrimidine-4-carbonyl)-5-methyl-benzonitrile]
– | 133 to 134 | C=CCCn1c(C(=O)c2cc(C)cc(C#N)c2)c(C(C)C)c(=O)[nH]c1=O [Compound 79, 3-(3-But-3-enyl-5-isopropyl-2,6-dioxo-1,2,3,6-tetrahydro-pyrimidine-4-carbonyl)-5-methyl-benzonitrile]
< 10 | 177 to 178 | CC=CCn1c(C(=O)c2cc(C)cc(C#N)c2)c(C(C)C)c(=O)[nH]c1=O [Compound 80, 3-(3-But-2-enyl-5-isopropyl-2,6-dioxo-1,2,3,6-tetrahydro-pyrimidine-4-carbonyl)-5-methyl-benzonitrile]
< 10 | – | C/C=C(\Cl)Cn1c(C(=O)c2cc(C)cc(C#N)c2)c(C(C)C)c(=O)[nH]c1=O [Compound 6]
